For experiment [1], the target named is T1, RORγ-LBD (Homo sapiens, UniProt P51449).
T1 construct: made in house; host or cells: SF9 cells (baculovirus)
T1 sequence (P51449 269-508 limits assumed): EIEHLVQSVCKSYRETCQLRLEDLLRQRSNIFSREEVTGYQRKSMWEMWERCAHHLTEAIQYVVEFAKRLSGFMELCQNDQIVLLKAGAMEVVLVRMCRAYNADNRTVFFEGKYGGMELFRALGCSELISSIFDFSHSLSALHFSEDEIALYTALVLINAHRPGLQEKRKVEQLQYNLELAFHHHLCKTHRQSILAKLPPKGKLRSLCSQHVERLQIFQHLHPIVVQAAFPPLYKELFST
Put plainly: RORγ-Ligand Binding Domain (LBD) TR-FRET Assay.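 On TR-FRET Assay Max Response: 665/615 nm ratio relative to signal without ursolic acid or compound set at 100.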 It is filed as biochemical. An outline of the steps: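 SF9 lysate containing His-RORγ-LBD, ~3 nM final; coactivator peptide biotin-SRC1 LXXLL, 200 nM final; ursolic acid 2 μM final; DMSO 1% final; Tris pH 7.0 buffer with KCl, EDTA, DTT, BSA. TR-FRET format.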

Experiment [2] has as its target T2, Gal4-RORγ-LBD (Homo sapiens, UniProt P51449).
T2 construct: expressed in transfected cells; host or cells: HEK-293 cells (pcDNA3.1neo plasmid)
T2 sequence (P51449 269-508 limits assumed): T1 sequence (P51449 269-508 limits assumed)
Put plainly: Gal4-RORγ Luciferase Reporter Assay in HEK-293T Cells. The experiment is classed as cell-based. The following applies: HEK-293 cells. The method in brief: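 In transfected HEK-293 cells (Gal4-RORγ-LBD, Gal4-luciferase), test agents with 2 μM ursolic acid were incubated overnight at 37 °C before luminescent detection. Values are relative to the ursolic-acid-free, compound-free signal (100).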

Setting [3] is: luciferase reporter, with 2 μM ursolic acid.

Structures are written as SMILES.

As to `O=C(CO)NC[C@H]1CN(S(=O)(=O)c2cccc(C(F)(F)F)c2)c2cc(-c3cc(F)ccc3F)ccc2O1` [Compound 30BA, (S)-N-((6-(2,5-difluorophenyl)-4-((3-(trifluoromethyl)phenyl)-sulfonyl)-3,4-dihydro-2H-benzo[b][1,4]oxazin-2-yl)methyl)-2-hydroxyacetamide], in experiment [1], the concentration giving a half-maximal response (EC50) is under 500 nM and the “TR-FRET Assay Max Response” value was “*** (The symbol “***” indicates a value in the range of greater than 150 to 200)”. Moreover, in experiment [2] (setting [3]), the concentration giving a half-maximal response (EC50) was under 500 nM and the “Gal4-RORγ Assay Max Response” value was “** (The symbol “**” indicates a value in the range of greater than 90 to 150)”.
For the compound `O=C(O)CC[C@H]1CN(S(=O)(=O)c2cccc(C(F)(F)F)c2)c2cc(-c3nccc(C(F)(F)F)n3)ccc2O1` [Compound 4B, (S)-3-(4-((3-(trifluoromethyl)-phenyl)sulfonyl)-6-(4-(trifluoromethyl)pyrimidin-2-yl)-3,4-dihydro-2H-benzo[b][1,4]oxazin-2-yl)propanoic acid], in experiment [1], the EC50 is under 500 nM and the “TR-FRET Assay Max Response” value is recorded as “*** (The symbol “***” indicates a value in the range of greater than 150 to 200)”. Besides, in experiment [2] (setting [3]), the 50% effective concentration (EC50) was under 500 nM and the “Gal4-RORγ Assay Max Response” value is listed as “** (The symbol “**” indicates a value in the range of greater than 90 to 150)”.
Take `CC(C)(C[C@H]1CN(S(=O)(=O)c2cccc(C(F)(F)F)c2)c2cc(-c3cccc(C(F)(F)F)n3)ccc2O1)C(=O)O` [Compound 32E, (S)-2,2-dimethyl-3-(4-((3-(trifluoromethyl)phenyl)sulfonyl)-6-(6-(trifluoromethyl)pyridin-2-yl)-3,4-dihydro-2H-benzo[b][1,4]oxazin-2-yl)propanoic acid]: in experiment [1], the EC50 is under 500 nM and the “TR-FRET Assay Max Response” value is recorded as “**** (The symbol “****” indicates a value greater than 200)”. In addition, in experiment [2] (setting [3]), the EC50 was under 500 nM and the “Gal4-RORγ Assay Max Response” value was “** (The symbol “**” indicates a value in the range of greater than 90 to 150)”.
As to `Cn1cc(-c2ccc3c(c2)N(S(=O)(=O)c2cccc(C(F)(F)F)c2)C[C@H](CCC(=O)O)O3)cn1` [Compound 2AQ, (S)-3-(6-(1-methyl-1H-pyrazol-4-yl)-4-((3-(trifluoromethyl)-phenyl)sulfonyl)-3,4-dihydro-2H-benzo[b][1,4]oxazin-2-yl)propanoic acid], in experiment [1], the EC50 is 500 to 5000 nM and the “TR-FRET Assay Max Response” value was “**** (The symbol “****” indicates a value greater than 200)”. Besides, in experiment [2] (setting [3]), the EC50 was in the range of 500 to 5000 nM and the “Gal4-RORγ Assay Max Response” value was “* (The symbol “*” indicates a value in the range of 25 to 90)”.
As to `COCCC(=O)NC[C@H]1CN(S(=O)(=O)c2cccc(C(F)(F)F)c2)c2cc(-c3cccc(F)c3Cl)ccc2O1` [Compound 30CH, (S)-N-((6-(2-chloro-3-fluoro-phenyl)-4-((3-(trifluoromethyl)-phenyl)sulfonyl)-3,4-dihydro-2H-benzo[b][1,4]oxazin-2-yl)methyl)-3-methoxy-propanamide], in experiment [1], the EC50 is under 500 nM and the “TR-FRET Assay Max Response” value is on record as “*** (The symbol “***” indicates a value in the range of greater than 150 to 200)”. Moreover, in experiment [2] (2 μM ursolic acid), the concentration giving a half-maximal response (EC50) fell in the range of 500 to 5000 nM and the “Gal4-RORγ Assay Max Response” value was “* (The symbol “*” indicates a value in the range of 25 to 90)”.

The values above are taken from patent publication US10611740B2, “Aryl dihydro-2H-benzo[b][1,4]oxazine sulfonamide and related compounds for use as agonists of RORγ and the treatment of disease” (Lycera Corporation, priority 2015, dated 2020).
